Measured values from patent US8623661B2, “Iron chelating agent, method for producing same, method for determining amount of iron ions and method for trapping iron ions” (National University Corporation Asahikawa Medical College, priority 2008, dated 2014).

Tests used:
[1] = tested on: iron citrate complex ammonium salt (FAC); assay: Evaluation C: chelating ability in MOPS/acetonitrile solvent, FAC solution; type: binding
Procedure: Evaluation was carried out by the following evaluation method C as to whether or not the iron chelating agent according to Examples 1 to 3 had chelating ability with iron in 3-morpholinopropanesulfonic acid (C7H15NO4S;MOPS) and acetonitrile solution as solvents used in high performance liquid chromatography (HPLC).
2.09 g of morpholinopropanesulfonic acid (C7H15NO4S; FW=209.26, Code 341-01801, Lot PX013, manufactured by Dojindo/Wako Corporation) was added to a 100 mL Erlenmeyer flask, 80 mL of ultrapure water (pure water produced by an ultrapure water production system manufactured by Millipore Corporation (Milli-Q); “Milli-Q water”) was added thereto and dissolved [pH 4.15 (24.4° C.)]. To this solution, 1N sodium hydroxide solution (1 mol/1 sodium hydroxide solution, Code 192-02175, Lot SEP7274, manufactured by Wako Pure Chemicals Industries) was added in 100 μl portions, the pH was adjusted to 7.0 and further Milli-Q water was made up to 100 mL in a measuring cylinder, whereby 100 mL of MOPS solution (pH 6.99) was prepared.
An iron chelating agent solution having an iron chelating agent concentration of 50 mM was prepared with respect to the iron chelating agent according to Examples 1 to 3, in the same manner as the preparation method of the iron chelating solution in evaluation A of the iron chelating agent.
Further, 100 mM of MOPS solution (pH6.99) prepared by the preparation method of the MOPS solution was used.
Furthermore, a stock solution of acetonitrile (C2H3N, FW=41.05, Code 347-06641, Lot WPI96, manufactured by Dojindo/Wako corporation) was used.
13.8 mL of Milli-Q water was taken in a 50 mL conical tube, 1.2 mL of each of the iron chelating agent solutions (Fe-Ser•Na (50 mM), Fe-His•Na (50 mM), Fe-Glu•Na (50 mM)) according to the iron chelating agents of Examples 1 to 3 was added, 1.0 mL of 100 mM MOPS solution was added thereto, and a further 4.0 mL of acetonitrile solution was added to produce an iron chelating solution using MOPS. The iron chelating agent solutions using MOPS and iron chelating agent according to Examples 1 to 3 were defined respectively as Fe-Ser•Na (MOPS solution)” (iron chelating agent according to
Example 1), “Fe-His•Na (MOPS solution)” (iron chelating agent according to Example 2), and “Fe-Glu•Na(MOPS solution)” (iron chelating agent according to Example 3).
An iron citrate complex ammonium salt solution (FAC solution (20 mM)) having a concentration of iron ions of 20 mM and an iron citrate complex ammonium salt solution (FAC solution (2 mM)) having a concentration of iron ions of 2 mM were prepared, in the same manner as the preparation method of the iron citrate complex ammonium solution in evaluation A of the iron chelating agent.
FAC solution (20 mM) was added to and mixed with each of the iron chelating agent solutions [Fe-Ser•Na (MOPS solution), Fe-His•Na (MOPS solution), Fe-Glu•Na (MOPS solution)] using MOPS.

[2] = tested on: iron nitrilotriacetate complex (Fe-NTA); assay: Evaluation B: chelating ability with iron, absorbance after adding chelating agent to iron nitrilotriacetate complex (Fe-NTA) solution; type: binding; settings: for [B] absorbance after addition of iron chelating agent / [B]-[A]: 470 nm; for [B]-[A]: minus blank
Procedure: Evaluation was carried out by the following evaluation method B as to whether the iron chelating agent according to Example 1 had chelating ability with iron.
An iron chelating agent solution (Fe-Ser•Na (50 mM)) having an iron chelating agent concentration of 50 mM was prepared in the same manner as the preparation method of the iron chelating agent solution in evaluation method A of the iron chelating agent.
Ferric chloride-6 hydrate FeCl3.6H2O (MW270.30) crystals were dissolved in Milli-Q water to prepare an 80 mM solution (A liquid). Meanwhile, 160 mM of nitrilotriacetic acid solution (B liquid) was prepared by dissolving crystals of the free salt of NTA (191.14) in 6N hydrochloric acid. 10 mL of A liquid and 10 mL of B liquid was taken in a beaker, and sodium hydrogen carbonate NaHCO3 crystals were added bit by bit while stirring slowly. When gas generation was suppressed and the solution changed to a dark green color, the addition of NaHCO3 was completed. Finally, iron nitrilotriacetate complex solution “Fe-NTA solution (20 mM)” having an iron ion concentration of 20 mM made up to 40 mL was prepared.
Further, 1×D-PBS (pH 7.2) was added to Fe-NTA solution (20 mM) to prepare an iron nitrilotriacetate complex solution having a concentration of iron ions of 2 mM (“Fe-NTA solution (2 mM)”).
Iron nitrilotriacetate complex solution [Fe-NTA solution (20 mM), Fe-NTA solution (2 mM)], and 1×D-PBS (pH 7.2) were mixed at the ratios shown in Tables 3 to 4, the absorbance of the mixture (wavelength 470 nm) was measured by using a spectrophotometer (trade name “NanoDrop ND-1000 Full-spectrum UV/Vis Spectrophotometer”, manufactured by SCRUM Corporation, UV-Vis Module, Measure), and the absorbance of blank ([A] in Tables 3 to 4) was determined. Then, 158 μl of Fe-Ser•Na (50 mM) was added to the mixture, the absorbance (wavelength 470 nm) was measured as described above, and the absorbance after the addition of the iron chelating agent according to Examples ([B] in Tables 3 to 4) was determined.

[3] = Fe-NTA solution (2 mM) 0 μl + 1xD-PBS 160 μl + Fe-Ser•Na (50 mM) 158 μl
[4] = Fe-NTA solution (2 mM) 10 μl + 1xD-PBS 150 μl + Fe-Ser•Na (50 mM) 158 μl
[5] = Fe-NTA solution (2 mM) 20 μl + 1xD-PBS 140 μl + Fe-Ser•Na (50 mM) 158 μl
[6] = Fe-NTA solution (2 mM) 40 μl + 1xD-PBS 120 μl + Fe-Ser•Na (50 mM) 158 μl
[7] = Fe-NTA solution (2 mM) 80 μl + 1xD-PBS 80 μl + Fe-Ser•Na (50 mM) 158 μl
[8] = Fe-NTA solution (2 mM) 160 μl + 1xD-PBS 0 μl + Fe-Ser•Na (50 mM) 158 μl
[9] = Fe-NTA solution (20 mM) 0 μl + 1xD-PBS 160 μl + Fe-Ser•Na (50 mM) 158 μl
[10] = Fe-NTA solution (20 mM) 10 μl + 1xD-PBS 150 μl + Fe-Ser•Na (50 mM) 158 μl
[11] = Fe-NTA solution (20 mM) 20 μl + 1xD-PBS 140 μl + Fe-Ser•Na (50 mM) 158 μl
[12] = Fe-NTA solution (20 mM) 40 μl + 1xD-PBS 120 μl + Fe-Ser•Na (50 mM) 158 μl
[13] = Fe-NTA solution (20 mM) 80 μl + 1xD-PBS 80 μl + Fe-Ser•Na (50 mM) 158 μl
[14] = Fe-NTA solution (20 mM) 160 μl + 1xD-PBS 0 μl + Fe-Ser•Na (50 mM) 158 μl

O=C(O)C(CO)NCc1ccccc1O (stereo not shown) [Example 1, o-[(1-carboxy-2-hydroxyethyl)-amino-methyl]-phenol]
colour of the solution after mixing ([1]; FAC solution (2 mM) added to chelating agent MOPS solution (MOPS, acetonitrile)): dark brown-colored
colour of the solution after mixing ([1]; FAC solution (20 mM) added to chelating agent MOPS solution (MOPS, acetonitrile)): dark brown-colored
[B] absorbance after addition of iron chelating agent [2, 3]: 0.011
[B]-[A] [2, 3]: 0.007
[B] absorbance after addition of iron chelating agent [2, 4]: 0.017
[B]-[A] [2, 4]: 0.014
[B] absorbance after addition of iron chelating agent [2, 5]: 0.026
[B]-[A] [2, 5]: 0.023
[B] absorbance after addition of iron chelating agent [2, 6]: 0.041
[B]-[A] [2, 6]: 0.036
[B] absorbance after addition of iron chelating agent [2, 7]: 0.075
[B]-[A] [2, 7]: 0.071
[B] absorbance after addition of iron chelating agent [2, 8]: 0.135
[B]-[A] [2, 8]: 0.125
[B] absorbance after addition of iron chelating agent [2, 9]: 0.008
[B]-[A] [2, 9]: 0.005
[B] absorbance after addition of iron chelating agent [2, 10]: 0.081
[B]-[A] [2, 10]: 0.077
[B] absorbance after addition of iron chelating agent [2, 11]: 0.163
[B]-[A] [2, 11]: 0.153
[B] absorbance after addition of iron chelating agent [2, 12]: 0.322
[B]-[A] [2, 12]: 0.296
[B] absorbance after addition of iron chelating agent [2, 13]: 0.731
[B]-[A] [2, 13]: 0.676
[B] absorbance after addition of iron chelating agent [2, 14]: 1.244
[B]-[A] [2, 14]: 1.132
capture of iron ions from an iron nitrilotriacetate complex ([2]; conclusion from Tables 3 to 4): iron ions can be captured
chelating ability with iron ([2]; conclusion from Tables 3 to 4): has chelating ability with iron
